Laboratory results from paper PMC8219539 (Journal of Atherosclerosis and Thrombosis, 2020).
pIC50: −log10 of the molar value.

Molecular target: S1P receptor 2 (S1P2/EDG-5) (Homo sapiens, UniProt O95136)
Assay: Fura2 intracellular Ca2+ assay
Type: cell-based

Chain of S1P receptor 2 (S1P2/EDG-5) (O95136 whole entry): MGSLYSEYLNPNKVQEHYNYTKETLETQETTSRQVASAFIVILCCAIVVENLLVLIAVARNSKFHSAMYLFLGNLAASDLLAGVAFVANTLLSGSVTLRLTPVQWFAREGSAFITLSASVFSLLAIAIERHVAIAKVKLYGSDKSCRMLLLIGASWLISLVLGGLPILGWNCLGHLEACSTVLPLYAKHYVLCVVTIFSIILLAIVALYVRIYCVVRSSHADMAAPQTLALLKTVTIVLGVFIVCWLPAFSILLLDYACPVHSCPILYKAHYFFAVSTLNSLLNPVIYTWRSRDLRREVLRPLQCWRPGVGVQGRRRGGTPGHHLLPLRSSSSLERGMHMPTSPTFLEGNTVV

pIC50 | Compound
8.28 | Cc1nn(C)c2nc(NNC(=O)Nc3c(Cl)cncc3Cl)cc(C(C)C)c12 [JTE-013]
8.24 | ONO-5430514
